These results are taken from PubChem BioAssay (NCI).

Some test systems named below: CAKI-1 renal; EKVX NSCLC; K-562 leukemia; NCI-H23 lung; OVCAR-3 ovarian; RPMI-8226 leukemia; SNB-19 CNS; TK-10 renal; UO-31 renal.
Common to all, as to assay: growth of human tumour cells (NCI), 48 h

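Results reflect a 48-hour exposure of cells in 96-well plates to compound at five concentrations. The concentration for 50% growth inhibition is given as GI50. TGI marks complete inhibition of growth.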 A value given as a limit tells only on which side of the number the result lay.

For `COc1ccc(/C=C(\C#N)c2cc(OC)c(OC)c(OC)c2)cc1`, the GI50 was 0.0209 µM in the assay with CAKI-1 renal; 0.0656 µM with EKVX NSCLC; less than 0.01 µM with K-562 leukemia; 0.0242 µM in the assay with NCI-H23 lung; less than 0.014 µM in the assay with OVCAR-3 ovarian; 0.0483 µM in the assay on RPMI-8226 leukemia. Moreover, the GI50 is 0.0558 µM with SNB-19 CNS and 0.0389 µM in the assay with UO-31 renal. Further, the TGI in the assay on CAKI-1 renal is more than 100 µM; with EKVX NSCLC it was more than 100 µM; in the assay on K-562 leukemia, more than 100 µM; in the assay with NCI-H23 lung, more than 100 µM; with OVCAR-3 ovarian, 0.0322 µM; in the assay on RPMI-8226 leukemia, 27 µM. For the same molecule, the TGI with SNB-19 CNS was more than 100 µM; in the assay on TK-10 renal, more than 100 µM; in the assay with UO-31 renal it was 58.6 µM.
As to `O=C(O)C1CC2C=CCC(C2)C1` (configuration not stated), the TGI with CAKI-1 renal, in the assay with EKVX NSCLC, in the assay with K-562 leukemia, with NCI-H23 lung, in the assay with OVCAR-3 ovarian and with RPMI-8226 leukemia was more than 100 µM each time. Moreover, the TGI with SNB-19 CNS, in the assay on TK-10 renal and in the assay on UO-31 renal was more than 100 µM in each case.
Turning to `N.N.N.N.O=S([O-])[O-].[Co+3].[N-]=[N+]=[N-]`, the GI50 with EKVX NSCLC, with K-562 leukemia, in the assay on NCI-H23 lung, in the assay with OVCAR-3 ovarian, in the assay on RPMI-8226 leukemia and with SNB-19 CNS was more than 100 µM each time. The GI50 in the assay with TK-10 renal and with UO-31 renal was more than 100 µM each time. Further, the TGI with EKVX NSCLC, in the assay on K-562 leukemia, in the assay with NCI-H23 lung, in the assay with OVCAR-3 ovarian, in the assay with RPMI-8226 leukemia and in the assay with SNB-19 CNS was more than 100 µM each time. Besides, the TGI with TK-10 renal and in the assay on UO-31 renal was more than 100 µM each time.
As for `CCNC(=O)COc1ccc(Cl)c(C)c1`, the TGI in the assay with CAKI-1 renal, in the assay with K-562 leukemia, in the assay on NCI-H23 lung, in the assay on OVCAR-3 ovarian, in the assay on RPMI-8226 leukemia and in the assay with SNB-19 CNS was more than 100 µM each time. Also, the TGI in the assay with TK-10 renal and with UO-31 renal was more than 100 µM each time.
`Cc1nc(Nc2ccc(Cl)cc2)sc1C(=O)Nc1cccc2c(=O)[nH][nH]c(=O)c12`: the TGI was more than 100 µM with CAKI-1 renal; 44.2 µM in the assay with EKVX NSCLC; 47.3 µM in the assay with K-562 leukemia; 40.5 µM in the assay on NCI-H23 lung; 40.4 µM in the assay with OVCAR-3 ovarian; more than 100 µM in the assay on SNB-19 CNS. Also, the TGI with TK-10 renal and with UO-31 renal was more than 100 µM in each case.
Turning to `O=C(NCCCN1CCN(CCCNC(=O)Nc2cc(Cl)ccc2Cl)CC1)Nc1cc(Cl)ccc1Cl`, the TGI in the assay on CAKI-1 renal, in the assay with K-562 leukemia, in the assay with NCI-H23 lung, with OVCAR-3 ovarian, with RPMI-8226 leukemia and in the assay with SNB-19 CNS was more than 100 µM each time. The TGI with TK-10 renal and in the assay with UO-31 renal was more than 100 µM in each case.
As to `CN(C)C(=S)/N=c1\ssc(=Nc2ccccc2)n1-c1ccccc1`, the TGI in the assay on CAKI-1 renal is 75.6 µM; with EKVX NSCLC it was 94.4 µM; with K-562 leukemia, more than 100 µM; with NCI-H23 lung, more than 100 µM; in the assay on OVCAR-3 ovarian, 28.3 µM; in the assay with TK-10 renal, 64.4 µM. The TGI in the assay with UO-31 renal was more than 100 µM.
As to `CCCCS(=O)(=O)c1cc(Nc2ccc(O)c3c2C(=O)c2ccccc2C3=O)ccc1C`, the GI50 in the assay on CAKI-1 renal is more than 100 µM; in the assay on RPMI-8226 leukemia, more than 100 µM; with SNB-19 CNS, 13.4 µM; with UO-31 renal it was more than 100 µM. Also, the TGI in the assay with CAKI-1 renal, with RPMI-8226 leukemia, with SNB-19 CNS and with UO-31 renal was more than 100 µM each time.
`COc1ccc(CN2c3ccccc3Sc3ccccc32)cc1O`: the GI50 was 0.472 µM in the assay on CAKI-1 renal; 0.378 µM in the assay with EKVX NSCLC; 0.365 µM with K-562 leukemia; 0.364 µM in the assay with NCI-H23 lung; 0.483 µM with RPMI-8226 leukemia; 0.771 µM with SNB-19 CNS. The figures for the GI50 in the assay with TK-10 renal and in the assay on UO-31 renal were 2.52 µM and 0.751 µM, respectively. For the same molecule, the TGI with CAKI-1 renal is 17.7 µM; with EKVX NSCLC, 15.9 µM; in the assay on K-562 leukemia, 26.6 µM; with NCI-H23 lung, 13.2 µM; in the assay with RPMI-8226 leukemia, 35.5 µM; with SNB-19 CNS it was 26.9 µM. For the same molecule, the TGI in the assay with TK-10 renal is 20.5 µM; in the assay on UO-31 renal it was 18.9 µM.
Regarding `COC(=O)C1=C(O)c2cc(OC)c(OC)c(OC)c2C(c2ccc3c(c2)OCO3)[C@@H]1C(=O)OC` (some centres not stated), the TGI is more than 100 µM in the assay on CAKI-1 renal; more than 100 µM in the assay on EKVX NSCLC; more than 100 µM with K-562 leukemia; more than 100 µM with NCI-H23 lung; 5.3 µM with OVCAR-3 ovarian; more than 100 µM in the assay with RPMI-8226 leukemia. Further, the TGI in the assay with TK-10 renal and with UO-31 renal was more than 100 µM throughout.
`O=C1c2ccccc2-c2c1c1ccccc1c(=O)n2CCNCCNCCNCCNCCn1c2c(c3ccccc3c1=O)C(=O)c1ccccc1-2`: the GI50 in the assay with CAKI-1 renal was 0.26 µM; with EKVX NSCLC, 0.677 µM; in the assay with K-562 leukemia, 0.0462 µM; with NCI-H23 lung, 0.615 µM; with OVCAR-3 ovarian, 1.45 µM; in the assay on RPMI-8226 leukemia, 0.0178 µM. Moreover, the values for the GI50 in the assay on TK-10 renal and in the assay on UO-31 renal were 0.177 µM and 0.661 µM, respectively. The TGI with CAKI-1 renal amounted to 2.93 µM; with EKVX NSCLC, 2.7 µM; with NCI-H23 lung it was 2.75 µM; with OVCAR-3 ovarian it was 4.96 µM; in the assay on RPMI-8226 leukemia it was 0.187 µM; in the assay with TK-10 renal it was 1.35 µM. The molecule also gave a TGI with UO-31 renal of 2.09 µM.
As to `Nc1ccc(C(=O)N/C(=C\c2ccc3c(c2)OCO3)c2nc3ccccc3s2)cc1`, the TGI turned out to be 29.7 µM with CAKI-1 renal; 25.9 µM in the assay with EKVX NSCLC; 38 µM with K-562 leukemia; 30.8 µM with OVCAR-3 ovarian; 28.7 µM in the assay on SNB-19 CNS; 34 µM in the assay on TK-10 renal. Further, the TGI in the assay on UO-31 renal worked out at 29 µM.
For the molecule `COC(=O)CCC(NC(=S)N/N=C(\C)c1cccs1)C(=O)OC` (configuration not stated), the TGI in the assay with EKVX NSCLC, in the assay on K-562 leukemia, with NCI-H23 lung, with OVCAR-3 ovarian, with SNB-19 CNS and in the assay with TK-10 renal was more than 100 µM in each case. The TGI with UO-31 renal is more than 100 µM.
Consider `CC(NC1CCCC[C@@H]1O)c1ccccc1` (some centres not stated), for which the TGI in the assay with CAKI-1 renal, in the assay with EKVX NSCLC, in the assay with K-562 leukemia, in the assay with OVCAR-3 ovarian, in the assay on RPMI-8226 leukemia and with SNB-19 CNS was more than 100 µM throughout. In addition, the TGI in the assay on TK-10 renal and in the assay on UO-31 renal was more than 100 µM throughout.
